Reference: patent US5792767A, “Bicyclic substituted hexahydrobenz [e] isoindole alpha-1 adrenergic antagonists” (priority 1995, dated 1998)
Counter-ions that a name gives are not always drawn.

biological target: T1, α-1A adrenoceptor (dog prostate); assay: Functional antagonism of phenylephrine-induced contraction of canine prostate strips; format: cell-based, dog (canine); conditions: vs phenylephrine-induced contraction, Schild plot; read-out: pA2 Dog Prostate [α-1A] (converted)
T1 construct: from tissue; host or cells: canine prostate strips
T1 sequence (P35348 whole entry): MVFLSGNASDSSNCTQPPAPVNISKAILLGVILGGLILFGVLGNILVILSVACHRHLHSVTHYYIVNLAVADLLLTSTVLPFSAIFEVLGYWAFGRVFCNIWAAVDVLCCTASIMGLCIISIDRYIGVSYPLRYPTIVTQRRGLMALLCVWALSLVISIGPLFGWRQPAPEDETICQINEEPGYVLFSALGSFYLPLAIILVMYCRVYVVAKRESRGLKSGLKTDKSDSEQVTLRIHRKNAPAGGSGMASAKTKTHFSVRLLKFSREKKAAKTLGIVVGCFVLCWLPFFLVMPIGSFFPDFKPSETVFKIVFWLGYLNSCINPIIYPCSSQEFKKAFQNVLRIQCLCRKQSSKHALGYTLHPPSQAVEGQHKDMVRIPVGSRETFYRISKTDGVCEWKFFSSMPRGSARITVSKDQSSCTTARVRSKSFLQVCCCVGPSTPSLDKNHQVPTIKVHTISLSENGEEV
From the text: Canine prostate strips were used in vitro as previously described (Hieble, J. P., Boyce, A. J. and Caine, M., Fed. Proc., 45: 2609-2614 (1986)), to determine antagonist potencies against phenylephrine-induced contractions.
Functional assays indicative of pharmacologically defined α-1 adrenoceptors were used to further characterize compounds. Inhibition of phenylephrine (PE)-induced contraction of canine prostate smooth muscle can be correlated with α-1A adrenoceptor activation. […] For each of these models, agonist dose response curves were repeated against increasing concentrations of test agent to derive a Schild plot [log ([…]) against log (molarity of test agent)] to determine the pA2.

Question: Which Kb does the source give for `COc1cccc2c1CC[C@H]1CN(CCn3c(=O)[nH]c4scc(C)c4c3=O)C[C@@H]21` (relative stereo) [Example 4, hydrochloride] here?
Answer: Its Kb is 12.3 nM.

Question: Which Kb does the source give for `COc1cccc2c1CC[C@H]1CN(CCn3c(=O)[nH]c4scc(-c5ccccc5)c4c3=O)C[C@@H]21` (relative stereo) [Example 6, hydrochloride] here?
Answer: The Kb was 47.9 nM.

Question: Which Kb does the source give for `COc1cccc2c1CC[C@H]1CN(CCn3c(=O)[nH]c4sc(-c5ccccc5)cc4c3=O)C[C@@H]21` (relative stereo) [Example 7, 3-[2-(cis-6-Methoxy-2,3,3a,4,5,9b-hexahydro-[1H]-benz[e]isoindol-1-yl)ethyl]-6-phenyl-thieno[2,3-d]pyrimidine-2,4(1H,3H)-dione hydrochloride] here?
Answer: The Kb was 24 nM.

Question: For `COc1cccc2c1CC[C@H]1CN(CCn3c(=O)[nH]c4cc(Cl)ccc4c3=O)C[C@@H]21` (relative stereo) [Example 11, hydrochloride], which Kb is on record?
Answer: The Kb was 1.2 nM.

Question: How did the Kb turn out when `COC(=O)c1ccc2c(=O)n(CCN3C[C@@H]4CCc5c(OC)cccc5[C@@H]4C3)c(=O)[nH]c2c1` (relative stereo) [Example 14, hydrochloride] was run?
Answer: The Kb was 0.977 nM.

Question: For `COc1cccc2c1CC[C@H]1CN(CCn3c(=O)[nH]c4ccc(F)cc4c3=O)C[C@@H]21` (relative stereo) [Example 15, 3-[2-(cis-6-Methoxy-2,3,3a,4,5,9b-hexahydro-[1H]-benz[e]isoindol-1-yl)ethyl]-6-fluoro-quinazoline-2,4(1H,3H)-dione hydrochloride], which Kb is on record?
Answer: Its Kb is 5.37 nM.

Question: How did the Kb turn out when `COc1cccc2c1CC[C@H]1CN(CCn3c(=O)[nH]c4ccc([N+](=O)[O-])cc4c3=O)C[C@@H]21` (relative stereo) [Example 16, hydrochloride] was run?
Answer: Its Kb is 12.3 nM.

Question: `COc1ccc2[nH]c(=O)n(CCN3C[C@@H]4CCc5c(OC)cccc5[C@@H]4C3)c(=O)c2c1` (relative stereo) [Example 17, hydrochloride] was tested. Which Kb did it give?
Answer: The Kb was 1.15 nM.

Question: Which Kb does the source give for `COc1cccc2c1CC[C@H]1CN(CCn3c(=O)[nH]c4c(OC)c(OC)c(OC)cc4c3=O)C[C@@H]21` (relative stereo) [Example 18, 3-[2-(cis-6-Methoxy-2,3,3a,4,5,9b-hexahydro-[1H]-benz[e]isoindol-1-yl)ethyl]-6,7,8-trimethoxy-quinazoline-2,4(1H,3H)-dione hydrochloride] here?
Answer: The Kb was 4.17 nM.

Question: With `COc1cccc2c1CC[C@H]1CN(CCn3c(=O)[nH]c4c(C)cccc4c3=O)C[C@@H]21` (relative stereo) [Example 19, hydrochloride] as the compound, how does the Kb read?
Answer: Its Kb is 5.01 nM.

Question: For `COc1cccc2c1CC[C@H]1CN(CCn3c(=O)[nH]c4c(C)cc(C)cc4c3=O)C[C@@H]21` (relative stereo) [Example 20, hydrochloride], which Kb is on record?
Answer: Its Kb is 1.48 nM.

Question: How did the Kb turn out when `COc1cccc2c1CC[C@H]1CN(CCn3c(=O)[nH]c4ncccc4c3=O)C[C@@H]21` (relative stereo) [Example 21, 3-[2-(cis-6-Methoxy-2,3 3a,4,5,9b-hexahydro-[1H]-benz[e]isoindol-1-yl)ethyl]-pyrido[2,3-d]pyrimidine-2,4(1H,3H)-dione hydrochloride] was run?
Answer: Its Kb is 13.2 nM.

Question: `COc1cccc2c1CC[C@H]1CN(CCn3c(=O)[nH]c4cccnc4c3=O)C[C@@H]21` (relative stereo) [Example 22, hydrochloride] was tested. Which Kb did it give?
Answer: The Kb was 1.51 nM.

Question: For `COc1cccc2c1CC[C@H]1CN(CCn3c(=O)[nH]c4cccc(Cl)c4c3=O)C[C@@H]21` (relative stereo) [Example 23, hydrochloride], which Kb is on record?
Answer: Its Kb is 4.79 nM.

Question: Which Kb does the source give for `COc1cccc2c1CC[C@H]1CN(CCn3c(=O)[nH]c4cnccc4c3=O)C[C@@H]21` (relative stereo) [Example 24, dihydrochloride] here?
Answer: The Kb was 1.29 nM.

Question: Which Kb does the source give for `COc1cccc2c1CC[C@H]1CN(CCn3c(=O)[nH]c4cc(F)ccc4c3=O)C[C@@H]21` (relative stereo) [Example 25, 3-[2-(cis-6-Methoxy-2,3,3a,4,5,9b-hexahydro-[1H]-benz[e]isoindol-1-yl)ethyl]-7-fluoro-quinazoline-2,4(1H,3H)-dione hydrochloride] here?
Answer: Its Kb is 0.676 nM.

Question: `COc1cccc2c1CC[C@H]1CN(CCn3c(=O)c4ccccc4n(C)c3=O)C[C@@H]21` (relative stereo) [Example 26, hydrochloride] was tested. Which Kb did it give?
Answer: Its Kb is 0.589 nM.

Question: For `COc1cccc2c1CC[C@H]1CN(CCn3c(=O)[nH]c4ccncc4c3=O)C[C@@H]21` (relative stereo) [Example 27, dihydrochloride], which Kb is on record?
Answer: The Kb was 2.34 nM.

Question: How did the Kb turn out when `COc1cccc2c1CC[C@H]1CN(CCn3c(=O)[nH]c4c(cnn4C)c3=O)C[C@@H]21` (relative stereo) [Example 28, hydrochloride] was run?
Answer: The Kb was 4.79 nM.

Question: With `COc1cccc2c1CC[C@H]1CN(CCn3c(=O)[nH]c4sc(C)cc4c3=O)C[C@@H]21` (relative stereo) [Example 29, hydrochloride] as the compound, how does the Kb read?
Answer: The Kb was 1.23 nM.

Question: For `COc1cccc2c1CC[C@H]1CN(CCn3c(=O)[nH]c4[nH]ccc4c3=O)C[C@@H]21` (relative stereo) [Example 30], which Kb is on record?
Answer: Its Kb is 1.15 nM.

Question: For `COc1cccc2c1CC[C@H]1CN(CCn3c(=O)[nH]c4cc(-c5ccccc5)sc4c3=O)C[C@@H]21` (relative stereo) [Example 32, hydrochloride], which Kb is on record?
Answer: The Kb was 33.9 nM.

Question: Which Kb does the source give for `COc1cccc2c1CC[C@H]1CN(CCn3cnc4ccccc4c3=O)C[C@@H]21` (relative stereo) [Example 34, dihydrochloride] here?
Answer: The Kb was 1.05 nM.

Question: `O=c1[nH]c2sccc2c(=O)n1CCN1C[C@@H]2CCc3c(O)cccc3[C@@H]2C1` (relative stereo) [Example 35, hydrobromide] was tested. Which Kb did it give?
Answer: The Kb was 87.1 nM.

Question: Which Kb does the source give for `COc1cccc2c1CC[C@H]1CN(CCn3c(=O)[nH]c4cc5c(cc4c3=O)OCO5)C[C@@H]21` [Example 37, hydrochloride] here?
Answer: Its Kb is 0.24 nM.

Question: For `COc1cccc2c1CC[C@H]1CN(CCn3c(=O)[nH]c4cc5c(cc4c3=O)OCCO5)C[C@@H]21` [Example 38, hydrochloride], which Kb is on record?
Answer: Its Kb is 0.229 nM.

Question: `COc1cccc2c1CC[C@H]1CN(CCN3Cc4ccccc4NC3=O)C[C@@H]21` [Example 44, hydrochloride] was tested. Which Kb did it give?
Answer: Its Kb is 5.37 nM.

Question: How did the Kb turn out when `COc1cccc2c1CC[C@H]1CN(CCn3c(=O)[nH]c4cc(C(N)=O)ccc4c3=O)C[C@@H]21` [Example 46, hydrochloride] was run?
Answer: Its Kb is 0.575 nM.

Question: How did the Kb turn out when `COc1cccc2c1CC[C@H]1CN(CCn3c(=O)[nH]c4cc(C(=O)N(C)C)ccc4c3=O)C[C@@H]21` [Example 47, 3-[2-((3aR ,9bR)-cis-6-Methoxy-2,3,3a,4,5,9b-hexahydro-[1H]-benz[e]isoindol-1-yl)ethyl]-7-(N,N'-dimethyl)carbamylguinazoline-2,4(1H,3H)-dione hydrochloride] was run?
Answer: The Kb was 1.62 nM.

Question: `COc1cccc2c1CC[C@H]1CN(CCn3c(=O)[nH]c4c(Cl)c(OC)c(Cl)cc4c3=O)C[C@@H]21` [Example 48, hydrochloride] was tested. Which Kb did it give?
Answer: The Kb was 6.46 nM.

Question: With `COc1cc2c(=O)n(CCN3C[C@@H]4CCc5c(OC)cccc5[C@@H]4C3)c(=O)[nH]c2cc1Cl` [Example 49, hydrochloride] as the compound, how does the Kb read?
Answer: The Kb was 12 nM.

Question: Which Kb does the source give for `COc1ccc2c(=O)n(CCN3C[C@@H]4CCc5c(OC)cccc5[C@@H]4C3)c(=O)n(C)c2c1` [Example 50, hydrochloride] here?
Answer: The Kb was 0.631 nM.

Question: How did the Kb turn out when `COc1cc2c(cc1Cl)c(=O)n(CCN1C[C@@H]3CCc4c(OC)cccc4[C@@H]3C1)c(=O)n2C` [Example 51, hydrochloride] was run?
Answer: Its Kb is 14.1 nM.

Question: With `COc1cccc2c1CC[C@H]1CN(CCn3c(=O)[nH]c4ccc5c(c4c3=O)OCO5)C[C@@H]21` [Example 53, hydrochloride] as the compound, how does the Kb read?
Answer: The Kb was 1.95 nM.

Question: Which Kb does the source give for `COc1cccc2c1CC[C@H]1CN(CCn3c(=O)[nH]c4c5c(ccc4c3=O)OCO5)C[C@@H]21` [Example 54, hydrochloride] here?
Answer: The Kb was 0.891 nM.
